{"source": "patent US11999941B2", "about": "“Composition suitable for protecting microorganisms” (SOCIÉTÉ DES PRODUITS NESTLÉ S.A., priority 2015, dated 2024)", "test_system": "Bifidobacterium longum BL999", "test": "Pre-screening of single ingredients as protective agent: viability loss after spray-drying, storage and reconstitution", "assay_type": "cell-based", "conditions": "for storage stability / losses during storage and reconstitution: storage at T=37° C.; for storage stability / losses during storage and reconstitution / viability loss after 8 weeks: aw=0.22, after spray-drying; for protective effect during drying: individual ingredient 18.2 wt % with maltodextrin DE12 and sodium ascorbate, compared to the reference; for viability loss after 8 weeks: 8 weeks storage at T=37° C.", "procedure": "A fermentation medium suitable for the growth of Bifidobacterium longum BL999 was inoculated with 2% frozen-thawed bacteria.\nThe centrifuged biomass was then conditioned according to the following process. […] Then 300 g of centrifuged biomass were filled into a beaker, which was placed in an ice water bath. The total solids content of the biomass was measured and the protective agent solution was added at a ratio of protective agents to biomass of 55/45 (based on dry weight). The mixture was gently agitated in the ice water bath for one hour. The pH was then adjusted to pH7.\nThe conditioned concentrate was then spray-dried on a lab-scale spray-dryer (Buechi, B-290, Flawil, Switzerland). The air temperature was 140° C. and the tower temperature was adjusted by the concentrate flow to T=70° C. During drying, the beaker containing the concentrate was cooled in an ice water bath.\nIn a first round of trials, 38 ingredients were selected as potential protective agents. The effect of those ingredients on the stability of Bifidobacterium longum BL999 was tested by spray-drying biomass with a protective agent comprising maltodextrin DE12, sodium ascorbate and one single additional ingredient from the list of 38 compounds to be screened in the following concentrations:\nThis control was used as a reference to evaluate the effect of the protective agents on the stability of Bifidobacterium longum BL999 during spray-drying, storage and reconstitution.\nThe 38 culture powders and the control were prepared as described above, the conditioning being carried out with one of the 38 protective agents.\nThe cell concentration of B. longum in the powder was detected by classical plating methods. Such classical plating methods are summarized in the microbiology book: James Monroe Jay, Martin J. Loessner, David A. Golden. […] Modern food microbiology. 7th edition, Springer Science, New York, N.Y. The cells were counted in the concentrate before drying, in the culture powder directly after drying and after 2, 3, 4, 6, 8 and/or 12 weeks storage in a climatic chamber at T=37° C. above saturated potassium acetate solution (aw=0.22). The cell counts after drying and after storage were determined after reconstitution of the powder with a reconstitution medium, as known by the person skilled in the art, who is well aware of the above-mentioned plating methods.\nThe following formulae were used for the evaluation of the data:\nwhere X0 is the number of micro-organisms at time t=0 and Xt the number of microorganisms at time t. When the microbiological counts were measured in k replicates, x0 is the average number of micro-organisms at time t=0 and, xt is the average number of micro-organisms at time t, the average log loss at time t is given by:\nThe tested individual ingredients were selected among several groups of molecules: sugars, sugar alcohols, amino acids and proteins. All tested ingredients within a group were spray-dried on the same day and the reference was spray dried again with each group, also on the same day.", "key": {"[1]": {"conditions": "individual ingredient 18.2 wt %"}}}
{"compound": "C[C@H](N)C(=O)O", "note": "[alanine, L-alanine]", "values": [{"measurement": "storage stability / losses during storage and reconstitution", "setting": "[1]", "result": "lowest losses during storage and reconstitution"}]}
{"compound": "N=C(N)NCCC[C@H](N)C(=O)O", "note": "[arginine, L-arginine]", "values": [{"measurement": "storage stability / losses during storage and reconstitution", "setting": "[1]", "result": "lowest losses during storage and reconstitution"}]}
{"compound": "N[C@@H](CS)C(=O)O", "note": "[cysteine, L-cysteine]", "values": [{"measurement": "viability loss during drying", "setting": "spray-drying, protective agent of maltodextrin DE12 68.2 wt %, sodium ascorbate 13.6 wt %, individual ingredient 18.2 wt %", "result": 0.2, "unit": "log"}, {"measurement": "storage stability / losses during storage and reconstitution", "setting": "[1]", "result": "lowest losses during storage and reconstitution"}]}
{"compound": "OCC(O)CO", "note": "[glycerol]", "values": [{"measurement": "protective effect during drying", "setting": "spray-drying", "result": "light protective effect"}, {"measurement": "storage stability / losses during storage and reconstitution", "setting": "[1]", "result": "majority of the bacteria of this variant died already after two weeks storage"}]}
{"compound": "OC[C@@H](O)[C@@H](O[C@@H]1O[C@H](CO)[C@H](O)[C@H](O)[C@H]1O)[C@H](O)[C@@H](O)CO", "note": "[lactitol]", "values": [{"measurement": "viability loss after 8 weeks", "setting": "[1]", "result": "lowest"}]}
{"compound": "NCCCC[C@H](N)C(=O)O", "note": "[lysine, L-lysine]", "values": [{"measurement": "storage stability / losses during storage and reconstitution", "setting": "[1]", "result": "lowest losses during storage and reconstitution"}]}
{"compound": "OC[C@@H](O)[C@@H](O)[C@H](O)[C@H](O)CO", "note": "[mannitol]", "values": [{"measurement": "viability loss after 8 weeks", "setting": "[1]", "result": "lowest"}, {"measurement": "protective effect during drying", "setting": "spray-drying", "result": "light protective effect"}]}
{"compound": "O[C@H]1[C@H](O)[C@@H](O)[C@H](O)[C@@H](O)[C@H]1O", "note": "[myo-inositol]", "values": [{"measurement": "viability loss after 8 weeks", "setting": "[1]", "result": "lowest"}]}
{"compound": "O=C1O[C@H]([C@@H](O)CO)C([O-])=C1O.[Na+]", "note": "[sodium ascorbate]", "values": [{"measurement": "protective effect during drying", "setting": "spray-drying", "result": "does not show significant effect on the bacterial survival during the drying process"}]}
{"compound": "OC[C@@H](O)[C@@H](O)[C@H](O)[C@@H](O)CO", "note": "[sorbitol]", "values": [{"measurement": "viability loss after 8 weeks", "setting": "[1]", "result": "lowest"}, {"measurement": "protective effect during drying", "setting": "spray-drying", "result": "light protective effect"}]}
{"compound": "OC[C@H]1O[C@@](CO)(O[C@H]2O[C@H](CO)[C@@H](O)[C@H](O)[C@H]2O)[C@@H](O)[C@@H]1O", "note": "[sucrose]", "values": [{"measurement": "storage stability / losses during storage and reconstitution", "setting": "[1]", "result": "most efficient ingredient"}]}
{"compound": "OC[C@@H](O)[C@H](O)[C@@H](O)CO", "note": "[xylitol]", "values": [{"measurement": "protective effect during drying", "setting": "spray-drying", "result": "light protective effect"}]}
